ChEMBL document CHEMBL1201861, “Genomics of Drug Sensitity in Cancer screening data, Wellcome Trust Sanger Institute”

Columns and labels:
Experiment in all cases: cells
TYK-nu = assay type: functional, cell-based, Homo sapiens; conditions: Homo sapiens, TYK-nu;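 note: growth inhibition of human TYK-nu cells, read out by a cell viability assay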
Description: SANGER: Inhibition of human TYK-nu cell growth in a cell viability assay.

PANC-08-13 = assay type: functional, cell-based, Homo sapiens; conditions: Homo sapiens, PANC-08-13;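 note: cell growth inhibition, measured with a cell viability assay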
Description: SANGER: Inhibition of human PANC-08-13 cell growth in a cell viability assay.

FTC-133 = assay type: functional, cell-based, Homo sapiens; conditions: Homo sapiens, FTC-133
SW13 = assay type: functional, cell-based, Homo sapiens; conditions: Homo sapiens, SW13;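 note: IC50 is inhibition of SW13 cell growth, read out with a cell viability assay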
Description: SANGER: Inhibition of human SW13 cell growth in a cell viability assay.

LB2241-RCC = assay type: functional, cell-based, Homo sapiens; conditions: Homo sapiens, LB2241-RCC;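 note: cell viability assay measuring how strongly the cultured human renal carcinoma line is prevented from growing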
Description: SANGER: Inhibition of human LB2241-RCC cell growth in a cell viability assay.

SK-MEL-28 = assay type: functional, cell-based; conditions: Homo sapiens;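 note: growth inhibition of human SK-MEL-28 cells, read out with a cell viability assay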
Description: SANGER: Inhibition of human SK-MEL-28 cell growth in a cell viability assay.

MHH-ES-1 = assay type: functional, cell-based, Homo sapiens; conditions: Homo sapiens, MHH-ES-1;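 note: cell growth inhibition measured by a cell viability assay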
Description: SANGER: Inhibition of human MHH-ES-1 cell growth in a cell viability assay.

ATN-1 = assay type: functional, cell-based; conditions: Homo sapiens;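 note: growth inhibition of human ATN-1 cells, read out with a cell viability assay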
Description: SANGER: Inhibition of human ATN-1 cell growth in a cell viability assay.

SNU-387 = assay type: functional, cell-based, Homo sapiens; conditions: Homo sapiens, SNU-387
Description: SANGER: Inhibition of human SNU-387 cell growth in a cell viability assay.

ES4 = assay type: functional, cell-based, Homo sapiens; conditions: Homo sapiens, ES4;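 note: growth inhibition of human ES4 cells, read out by a cell viability assay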
Description: SANGER: Inhibition of human ES4 cell growth in a cell viability assay.

NCI-H526 = assay type: functional, cell-based; conditions: Homo sapiens;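 note: growth inhibition of the human NCI-H526 cell line, measured by a cell viability assay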
Description: SANGER: Inhibition of human NCI-H526 cell growth in a cell viability assay.

NCI-H747 = assay type: functional, cell-based; conditions: Homo sapiens;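 note: growth inhibition of human NCI-H747 cells, read out by a cell viability assay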
Description: SANGER: Inhibition of human NCI-H747 cell growth in a cell viability assay.

KYSE-270 = assay type: functional, cell-based, Homo sapiens; conditions: Homo sapiens, KYSE-270;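 note: cell growth inhibition measured with a viability assay in the human KYSE-270 line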
Description: SANGER: Inhibition of human KYSE-270 cell growth in a cell viability assay.

TE-12 = assay type: functional, cell-based; conditions: Homo sapiens;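 note: growth inhibition of TE-12 cells, read out by a cell viability assay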
Description: SANGER: Inhibition of human TE-12 cell growth in a cell viability assay.

ASPC1 = assay type: functional, cell-based, Homo sapiens; conditions: Homo sapiens, ASPC1;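 note: growth inhibition of AsPC-1 cells, read out with a cell viability assay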
Description: SANGER: Inhibition of human AsPC-1 cell growth in a cell viability assay.

K5 = assay type: functional, cell-based, Homo sapiens; conditions: Homo sapiens, K5
Description: SANGER: Inhibition of human K5 cell growth in a cell viability assay.

Lu-65 = assay type: functional, cell-based; conditions: Homo sapiens;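 note: growth inhibition of Lu-65 cancer cells, read out by a cell viability assay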
Description: SANGER: Inhibition of human LU-65 cell growth in a cell viability assay.

HC-1 = assay type: functional, cell-based; conditions: Homo sapiens;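 note: growth inhibition of HC-1 cells measured by a cell viability assay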
Description: SANGER: Inhibition of human HC-1 cell growth in a cell viability assay.

KYSE-510 = assay type: functional, cell-based, Homo sapiens; conditions: Homo sapiens, KYSE-510;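 note: cell viability readout used to measure how strongly growth of the cell line is suppressed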
Description: SANGER: Inhibition of human KYSE-510 cell growth in a cell viability assay.

LU-139 = assay type: functional, cell-based; conditions: Homo sapiens
Description: SANGER: Inhibition of human LU-139 cell growth in a cell viability assay.

KYSE-450 = assay type: functional, cell-based; conditions: Homo sapiens;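 note: cell growth inhibition measured by a viability assay in human KYSE-450 cells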
Description: SANGER: Inhibition of human KYSE-450 cell growth in a cell viability assay.

SCC-25 = assay type: functional, cell-based, Homo sapiens; conditions: Homo sapiens, SCC-25;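 note: growth inhibition of SCC-25 cells, measured with a cell viability assay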
Description: SANGER: Inhibition of human SCC-25 cell growth in a cell viability assay.

HTC-C3 = assay type: functional, cell-based, Homo sapiens; conditions: Homo sapiens, HTC-C3;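 note: inhibition of cell growth, read out with a cell viability assay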
Description: SANGER: Inhibition of human HTC-C3 cell growth in a cell viability assay.

RT-112 = assay type: functional, cell-based, Homo sapiens; conditions: Homo sapiens, RT-112
Description: SANGER: Inhibition of human RT-112 cell growth in a cell viability assay.

NCI-H2030 = assay type: functional, cell-based, Homo sapiens; conditions: Homo sapiens, NCI-H2030;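 note: growth inhibition of human NCI-H2030 cells, read out by a cell viability assay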
Description: SANGER: Inhibition of human NCI-H2030 cell growth in a cell viability assay.

GCT = assay type: functional, cell-based, Homo sapiens; conditions: Homo sapiens, GCT;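 note: GCT cell line proliferation inhibition, read out with a cell viability assay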
Description: SANGER: Inhibition of human GCT cell growth in a cell viability assay.

PFSK-1 = assay type: functional, cell-based, Homo sapiens; conditions: Homo sapiens, PFSK-1;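 note: cell viability assay measuring how strongly compounds suppress growth of human PFSK-1 cells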
Description: SANGER: Inhibition of human PFSK-1 cell growth in a cell viability assay.

SW982 = assay type: functional, cell-based; conditions: Homo sapiens;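 note: growth inhibition of SW982 cells, read out with a cell viability assay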
Description: SANGER: Inhibition of human SW982 cell growth in a cell viability assay.

M059J = assay type: functional, cell-based, Homo sapiens; conditions: Homo sapiens, M059J;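 note: growth inhibition of M059J cells, read out with a cell viability assay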
Description: SANGER: Inhibition of human M059J cell growth in a cell viability assay.

KMOE-2 = assay type: functional, cell-based; conditions: Homo sapiens;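 note: growth inhibition of human KMOE-2 cells, read out with a cell viability assay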
Description: SANGER: Inhibition of human KMOE-2 cell growth in a cell viability assay.

DB = assay type: functional, cell-based; conditions: Homo sapiens
Description: SANGER: Inhibition of human DB cell growth in a cell viability assay.

LNCaP-Clone-FGC = assay type: functional, cell-based, Homo sapiens; conditions: Homo sapiens, LNCaP-Clone-FGC
Description: SANGER: Inhibition of human LNCaP-Clone-FGC cell growth in a cell viability assay.

DoTc2-4510 = assay type: functional, cell-based, Homo sapiens; conditions: Homo sapiens, DoTc2-4510
TGBC24TKB = assay type: functional, cell-based, Homo sapiens; conditions: Homo sapiens, TGBC24TKB;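 note: growth inhibition of human TGBC24TKB cells, read out with a cell viability assay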
Description: SANGER: Inhibition of human TGBC24TKB cell growth in a cell viability assay.

MKN-1 = assay type: functional, cell-based, Homo sapiens; conditions: Homo sapiens, MKN-1;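 note: growth inhibition of human MKN1 cells, read out by a cell viability measurement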
Description: SANGER: Inhibition of human MKN1 cell growth in a cell viability assay.

TGBC1TKB = assay type: functional, cell-based, Homo sapiens; conditions: Homo sapiens, TGBC1TKB;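 note: growth inhibition of TGBC1TKB cells, read out by a cell viability assay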
Description: SANGER: Inhibition of human TGBC1TKB cell growth in a cell viability assay.

IA-LM = assay type: functional, cell-based, Homo sapiens; conditions: Homo sapiens, IA-LM;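 note: cell viability assay measuring growth inhibition of human IA-LM cells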
Description: SANGER: Inhibition of human IA-LM cell growth in a cell viability assay.

Ca-Ski = assay type: functional, cell-based; conditions: Homo sapiens;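 note: cell viability assay measuring inhibition of Ca-Ski cell growth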
Description: SANGER: Inhibition of human Ca-Ski cell growth in a cell viability assay.

NCI-H1623 = assay type: functional, cell-based, Homo sapiens; conditions: Homo sapiens, NCI-H1623;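 note: cell viability assay used as the read-out for growth inhibition of NCI-H1623 cells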
Description: SANGER: Inhibition of human NCI-H1623 cell growth in a cell viability assay.

D-392MG = assay type: functional, cell-based, Homo sapiens; conditions: Homo sapiens, D-392MG
A204 = assay type: functional, cell-based, Homo sapiens; conditions: Homo sapiens, A204;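 note: growth inhibition of human A204 cells, read out with a cell viability assay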
Description: SANGER: Inhibition of human A204 cell growth in a cell viability assay.

HCC1419 = assay type: functional, cell-based, Homo sapiens; conditions: Homo sapiens, HCC1419;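 note: growth inhibition of human HCC1419 cells, read out as cell viability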
Description: SANGER: Inhibition of human HCC1419 cell growth in a cell viability assay.

Detroit 562 = assay type: functional, cell-based, Homo sapiens; conditions: Homo sapiens, Detroit 562;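 note: growth inhibition of human Detroit 562 cells, read out by a cell viability assay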
Description: SANGER: Inhibition of human Detroit562 cell growth in a cell viability assay.

CAL-12T = assay type: functional, cell-based, Homo sapiens; conditions: Homo sapiens, CAL-12T;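 note: growth inhibition of human CAL-12T cells, read out with a cell viability assay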
Description: SANGER: Inhibition of human CAL-12T cell growth in a cell viability assay.

SCH = assay type: functional, cell-based, Homo sapiens; conditions: Homo sapiens, SCH;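 note: growth inhibition of human SCH cells, read out in a cell viability assay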
Description: SANGER: Inhibition of human SCH cell growth in a cell viability assay.

HT = assay type: functional, cell-based; conditions: Homo sapiens
Description: SANGER: Inhibition of human HT cell growth in a cell viability assay.

NCI-H2126 = assay type: functional, cell-based, Homo sapiens; conditions: Homo sapiens, NCI-H2126;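 note: growth inhibition of the cancer cell line, determined with a cell viability readout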
Description: SANGER: Inhibition of human NCI-H2126 cell growth in a cell viability assay.

CAL-51 = assay type: functional, cell-based, Homo sapiens; conditions: Homo sapiens, CAL-51;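 note: human CAL-51 cell line, growth inhibition read out via a cell viability assay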
Description: SANGER: Inhibition of human CAL-51 cell growth in a cell viability assay.

A4-Fuk = assay type: functional, cell-based; conditions: Homo sapiens;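 note: growth inhibition of A4-Fuk cells, read out by a cell viability assay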
Description: SANGER: Inhibition of human A4-Fuk cell growth in a cell viability assay.

KALS-1 = assay type: functional, cell-based, Homo sapiens; conditions: Homo sapiens, KALS-1;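 note: growth inhibition of KALS-1 cells, determined with a cell viability assay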
Description: SANGER: Inhibition of human KALS-1 cell growth in a cell viability assay.

MFE-280 = assay type: functional, cell-based, Homo sapiens; conditions: Homo sapiens, MFE-280;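 note: growth inhibition of MFE-280 cells, determined with a cell viability readout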
Description: SANGER: Inhibition of human MFE-280 cell growth in a cell viability assay.

LXF-289 cell line = assay type: functional, cell-based, Homo sapiens; conditions: Homo sapiens, LXF-289
Description: SANGER: Inhibition of human LXF-289 cell growth in a cell viability assay.

Measured: IC50

CN(Cc1cnc2nc(N)nc(N)c2n1)c1ccc(C(=O)N[C@@H](CCC(=O)O)C(=O)O)cc1 [METHOTREXATE]
69.6 nM: HC-1
52.1 nM: KYSE-270
0.691 nM: NCI-H526
158 nM: D-392MG
79.5 nM: ES4
59.8 nM: K5
97.4 nM: KMOE-2
142 nM: RT-112
197 nM: TYK-nu
> 200 nM: PANC-08-13 | FTC-133 | SW13 | LB2241-RCC | SK-MEL-28 | SNU-387 | NCI-H747 | TE-12 | ASPC1 | Lu-65 | LU-139 | KYSE-450 | SCC-25 | HTC-C3 | NCI-H2030 | GCT | PFSK-1 | SW982 | M059J | LNCaP-Clone-FGC | DoTc2-4510 | TGBC24TKB | MKN-1 | TGBC1TKB | IA-LM | Ca-Ski | NCI-H1623 | A204 | HCC1419 | Detroit 562 | CAL-12T | SCH | NCI-H2126 | CAL-51 | KALS-1 | MFE-280 | LXF-289 cell line
21.3 nM: DB
134 nM: HT
3.92 nM: ATN-1
107 nM: MHH-ES-1
38.2 nM: A4-Fuk
91.7 nM: KYSE-510

O=C(c1cc(Cc2n[nH]c(=O)c3ccccc23)ccc1F)N1CCN(C(=O)C2CC2)CC1 [OLAPARIB]
3650 nM: DB
4760 nM: LU-139
1620 nM: MHH-ES-1
> 5000 nM: TYK-nu | PANC-08-13 | FTC-133 | SW13 | LB2241-RCC | SK-MEL-28 | ATN-1 | SNU-387 | ES4 | NCI-H747 | KYSE-270 | TE-12 | ASPC1 | K5 | Lu-65 | HC-1 | KYSE-510 | KYSE-450 | SCC-25 | HTC-C3 | RT-112 | NCI-H2030 | GCT | PFSK-1 | SW982 | M059J | KMOE-2 | LNCaP-Clone-FGC | DoTc2-4510 | TGBC24TKB | MKN-1 | TGBC1TKB | IA-LM | Ca-Ski | NCI-H1623 | D-392MG | A204 | HCC1419 | Detroit 562 | CAL-12T | SCH | HT | NCI-H2126 | CAL-51 | A4-Fuk | KALS-1 | MFE-280 | LXF-289 cell line
3870 nM: NCI-H526
